In US12258338B2, “Modulators of the integrated stress response pathway” (EVOTEC INTERNATIONAL GMBH, priority 2019, dated 2025):
Converted amounts (≈) assume the structure as drawn. Read-outs that look alike come from different tables or passages of the source.

Tests used:
ATF4 = test: HEK-ATF4 High Content Imaging assay (prevention of Tunicamycin induced ISR; ATF4 signal ratio between nucleus and cytoplasm); assay type: cell-based; settings: Homo sapiens; Wild-type HEK293 cells, Tunicamycin induced ISR, 6 h; read-out: IIEK-ATF4 Activity
Summary of the method: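 Wild-type HEK293 cells in 0.3% FBS medium were co-treated with compounds and Tunicamycin (3.3 μM in prediluted medium, 11-fold over final) for 6 h at 37 °C. Fixed cells were immunostained for ATF4 with Hoechst nuclei; imaging gave nuclear/cytoplasmic ATF4 ratio, with nuclei counts as toxicity control.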

[1] = biological target: T1, human ERG potassium channel (hERG) (Homo sapiens, UniProt Q12809); test: hERG channel tail current recording using in vitro Rapid ICE (automated patch-clamp, QPatch HTX); assay type: cell-based; settings: Table 26
T1 construct: expressed in transfected cells; host or cells: HEK293, stably transfected, tetracycline-inducible promoter
T1 sequence (Q12809 whole entry): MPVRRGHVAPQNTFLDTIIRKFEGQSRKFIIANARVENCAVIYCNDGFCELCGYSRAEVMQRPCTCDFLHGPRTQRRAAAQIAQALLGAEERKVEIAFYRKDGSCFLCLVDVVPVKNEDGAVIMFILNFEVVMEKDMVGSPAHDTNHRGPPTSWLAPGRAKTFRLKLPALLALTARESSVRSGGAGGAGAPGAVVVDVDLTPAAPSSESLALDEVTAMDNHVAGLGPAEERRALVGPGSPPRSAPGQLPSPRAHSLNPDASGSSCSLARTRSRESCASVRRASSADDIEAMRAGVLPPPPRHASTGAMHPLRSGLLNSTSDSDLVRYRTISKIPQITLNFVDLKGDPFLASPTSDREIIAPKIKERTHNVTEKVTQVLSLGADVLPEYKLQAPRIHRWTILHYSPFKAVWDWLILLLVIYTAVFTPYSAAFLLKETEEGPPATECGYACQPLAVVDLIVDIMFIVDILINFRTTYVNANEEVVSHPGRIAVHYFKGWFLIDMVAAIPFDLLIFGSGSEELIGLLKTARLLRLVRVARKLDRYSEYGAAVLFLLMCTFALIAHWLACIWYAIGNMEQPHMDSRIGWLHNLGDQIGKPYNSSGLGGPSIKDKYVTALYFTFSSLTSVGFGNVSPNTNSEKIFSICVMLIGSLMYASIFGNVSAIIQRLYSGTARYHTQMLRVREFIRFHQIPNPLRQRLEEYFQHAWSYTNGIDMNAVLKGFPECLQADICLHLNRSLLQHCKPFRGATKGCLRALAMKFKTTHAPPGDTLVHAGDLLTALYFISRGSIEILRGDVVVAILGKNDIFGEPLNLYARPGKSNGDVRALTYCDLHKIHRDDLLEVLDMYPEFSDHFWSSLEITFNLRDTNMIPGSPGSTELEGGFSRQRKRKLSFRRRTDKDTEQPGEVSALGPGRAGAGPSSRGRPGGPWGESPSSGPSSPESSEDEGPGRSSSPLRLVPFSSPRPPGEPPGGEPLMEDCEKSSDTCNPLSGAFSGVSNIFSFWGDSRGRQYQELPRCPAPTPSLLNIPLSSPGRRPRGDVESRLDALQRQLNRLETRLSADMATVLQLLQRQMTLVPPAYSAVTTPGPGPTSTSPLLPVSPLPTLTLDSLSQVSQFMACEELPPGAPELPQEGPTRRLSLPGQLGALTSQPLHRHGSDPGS
Summary of the method: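 Automated patch clamp on tetracycline-induced HEK293 hERG cells; pulse −80 to −50 mV 200 ms, +20 mV 4.8 s, −50 mV 5 s tail, extracellular pH 7.4. Compound at 0.3, 3, 30 μM (0.3% DMSO), 5 min exposure; tail current versus vehicle gives % inhibition and estimated IC50.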

[2] = Thermodynamic (Equilibrium) solubility in selected buffer; assay type: physicochemical; settings: Table 25; for solubility: aqueous buffer, thermodynamic from solid
Method: Protocol—Thermodynamic (Equilibrium) Solubility in Selected Buffer
Example compounds were tested in the Thermodynamic (Equilibrium) solubility in selected buffer assay. The test compound, in powder form, was weighted into a 4 mL glass vial and a calculated volume of selected medium was added to reach the target concentration of the solubility test (1 mg/mL). The solution was then stirred overnight at r.t. protected from the light. The solution was filtered through a 0.45 μm PTFE membrane at ambient temperature. An aliquot of the resulting filtrate was quantified using UPLC-UV method described below against a reference solution of the test compound, 0.8 mg/mL in DMSO. Media compositions: Phosphate buffer 50 mM (pH=2.0) […] of NaH2PO4, H2O in 200 mL of ultrapurified water adjusted at pH 2 with phosphoric acid 85%; Acetate buffer 50 mM (pH=5.5) 820 mg of anhydrous sodium acetate in 200 mL of ultrapurified water adjusted at pH 5.5 with acetic acid 99.8%; Phosphate buffer 50 mM (pH=7.4) 40.5 mL of Na2HPO4 0.1 M solution+9.5 mL of NaH2PO4 0.1 M solution. Analytical conditions: UPLC-UV-MS analyses were performed with a Waters Acquity UPLC HClass-PDA-QDa system using a reverse phase Acquity BEH C18 column (2.1 mm×50 mm, 1.7 μm; temperature: 40° C.) and a gradient of 10-95% B (A=0.1% formic acid in H2O; B=0.05% formic acid in ACN) over 1.8 min then 100% B for 0.8 min, with an injection volume of 0.4 μL at flow rate of 0.65 mL/min. UV chromatograms were recorded at 220 nm, 254 nm and 290 nm using a photo diode array detector. Mass spectra were recorded in the 150 to 900 M/Z range at a sampling rate of 10 scans per sec using a QDa detector. Data were integrated using Empower®3 software. Data Analysis: Equilibrium solubility of the test compound in the selected medium was calculated through the ratio of the surface area of the UV chromatographic peak of the compound in the filtrate to the surface of the UV chromatographic peak of the compound in the reference solution.

[3] = acetate buffer 50 mM, pH 5.5, read-out: Solubility (μg/mL) pH 5.5
[4] = phosphate buffer 50 mM, pH 2.0, read-out: Solubility (μg/mL) pH 2.0
[5] = phosphate buffer 50 mM, pH 7.4, read-out: Solubility (μg/mL) pH 7.4

Row | SMILES | IC50 (ATF4) | IC50 [1] | solubility [2, 3] | solubility [2, 4] | solubility [2, 5] | Solubility (μg/mL) pH 2.0 ([2]; pH 2.0)
1 | Cc1ccc(OCC(=O)N[C@H]2CC[C@H](c3nnc(OCCOC(F)(F)F)o3)NC2)cc1C [Example 13, 2-(3,4-dimethylphenoxy)-N-[(3S,6R)-6-{5-[2-(trifluoromethoxy)ethoxy]-1,3,4-oxadiazol-2-yl}piperidin-3-yl]acetamide] | 1 to 500 nM | > 5000 nM | 318 µg/mL (≈ 694 µM) | 661 µg/mL (≈ 1440 µM) | 240 µg/mL (≈ 524 µM) | 
2 | O=C(COc1ccc(Cl)c(F)c1)N[C@H]1CC[C@H](c2nnc(N3CC[C@@H](OC(F)(F)F)C3)o2)NC1 (single isomer, unassigned) [Example 111] | 1 to 500 nM | 1000 to 5000 nM | 9 µg/mL (≈ 17.7 µM) | 911 µg/mL (≈ 1790 µM) | 6 µg/mL (≈ 11.8 µM) | 
3 | Cc1cc(OCC(=O)N[C@H]2CC[C@H](c3nnc(OCCOC(F)(F)F)o3)NC2)ccc1Cl [Example 12, 2-(4-chloro-3-methylphenoxy)-N-[(3S,6R)-6-{5-[2-(trifluoromethoxy)ethoxy]-1,3,4-oxadiazol-2-yl}piperidin-3-yl]acetamide] | 1 to 500 nM | > 5000 nM | 113 µg/mL (≈ 236 µM) | 651 µg/mL (≈ 1360 µM) | 105 µg/mL (≈ 219 µM) | 
4 | O=C(COc1ccc(Cl)c(F)c1)N[C@H]1CC[C@H](c2nnc(C3CN(CC(F)(F)F)C3)o2)NC1 [Example 57, 2-(4-chloro-3-fluorophenoxy)-N-[(3S,6R)-6-{5-[1-(2,2,2-trifluoroethyl)azetidin-3-yl]-1,3,4-oxadiazol-2-yl}piperidin-3-yl]acetamide] | 500 to 2000 nM | > 5000 nM | 663 µg/mL (≈ 1350 µM) |  | 501 µg/mL (≈ 1020 µM) | quant.^#
5 | O=C(COc1ccc(Cl)c(C(F)F)c1)N[C@H]1CC[C@H](c2nnc(OCCOC(F)(F)F)o2)NC1 [Example 11, 2-[4-chloro-3-(difluoromethyl)phenoxy]-N-[(3S,6R)-6-{5-[2-(trifluoromethoxy)ethoxy]-1,3,4-oxadiazol-2-yl}piperidin-3-yl]acetamide] | 1 to 500 nM | > 5000 nM | 60 µg/mL (≈ 117 µM) | 617 µg/mL (≈ 1200 µM) | 42 µg/mL (≈ 81.6 µM) | 
6 | O=C(COc1ccc(Cl)c(F)c1)N[C@H]1CC[C@H](c2nnc(N3CC[C@H](OC(F)(F)F)C3)o2)NC1 (single isomer, unassigned) [Example 110] | 1 to 500 nM | > 5000 nM | 256 µg/mL (≈ 504 µM) | 982 µg/mL (≈ 1930 µM) | 132 µg/mL (≈ 260 µM) | 
7 | O=C(COc1ccc(Cl)c(F)c1)N[C@H]1CC[C@H](c2nnc(-c3ccc(C(F)(F)F)nc3)o2)NC1 [Example 52, 2-(4-chloro-3-fluorophenoxy)-N-[(3S,6R)-6-{5-[6-(trifluoromethyl)pyridin-3-yl]-1,3,4-oxadiazol-2-yl}piperidin-3-yl]acetamide] | 1 to 500 nM | 1 to 1000 nM | 9 µg/mL (≈ 18 µM) | 839 µg/mL (≈ 1680 µM) | 7 µg/mL (≈ 14 µM) | 
8 | O=C(COc1ccc(Cl)c(F)c1)N[C@H]1CC[C@H](c2nnc(N3CC(C(F)(F)F)C3)o2)NC1 [Example 90, 2-(4-chloro-3-fluorophenoxy)-N-[(3S,6R)-6-{5-[3-(trifluoromethyl)azetidin-1-yl]-1,3,4-oxadiazol-2-yl}piperidin-3-yl]acetamide] | 500 to 2000 nM | > 5000 nM | 294 µg/mL (≈ 615 µM) |  | 173 µg/mL (≈ 362 µM) | quant.^#
9 | O=C(COc1ccc(Cl)c(Cl)c1)N[C@H]1CC[C@H](c2nnc(OCCOC(F)(F)F)o2)NC1 [Example 85, 2-(3,4-dichlorophenoxy)-N-[(3S,6R)-6-{5-[2-(trifluoromethoxy)ethoxy]-1,3,4-oxadiazol-2-yl}piperidin-3-yl]acetamide] | 1 to 500 nM | 1000 to 5000 nM | 9 µg/mL (≈ 18 µM) | 918 µg/mL (≈ 1840 µM) | 6 µg/mL (≈ 12 µM) | 
10 | O=C(COc1ccc(Cl)c(F)c1)N[C@H]1CC[C@H](c2noc([C@H]3C[C@@H](OC(F)(F)F)C3)n2)NC1 [Example 98, 2-(4-chloro-3-fluorophenoxy)-N-[(3S,6R)-6-{5-[(1s,3s)-3-(trifluoromethoxy)cyclobutyl]-1,2,4-oxadiazol-3-yl}piperidin-3-yl]acetamide] | 1 to 500 nM | 1000 to 5000 nM | 61 µg/mL (≈ 124 µM) |  | 17 µg/mL (≈ 34.5 µM) | quant.^#
11 | O=C(COc1ccc(Cl)c(F)c1)N[C@H]1CC[C@H](c2nnc(OCCOC(F)F)o2)NC1 [Example 75, 2-(4-chloro-3-fluorophenoxy)-N-[(3S,6R)-6-{5-[2-(difluoromethoxy)ethoxy]-1,3,4-oxadiazol-2-yl}piperidin-3-yl]acetamide] | 1 to 500 nM | 1000 to 5000 nM | 26 µg/mL (≈ 55.9 µM) | 713 µg/mL (≈ 1530 µM) | 22 µg/mL (≈ 47.3 µM) | 
12 | O=C(COc1ccc(Cl)c(F)c1)N[C@H]1CC[C@H](c2nnc(N3CC(OC4CC4)C3)o2)NC1 [Example 95, 2-(4-chloro-3-fluorophenoxy)-N-[(3S,6R)-6-[5-(3-cyclopropoxyazetidin-1-yl)-1,3,4-oxadiazol-2-yl]piperidin-3-yl]acetamide] | 1 to 500 nM | 1000 to 5000 nM | 378 µg/mL (≈ 811 µM) | 970 µg/mL (≈ 2080 µM) | 230 µg/mL (≈ 494 µM) | 
13 | O=C(COc1ccc(C(F)(F)F)cc1)N[C@H]1CC[C@H](c2nnc(OCCOC(F)(F)F)o2)NC1 [Example 112, N-[(3S,6R)-6-{5-[2-(trifluoromethoxy)ethoxy]-1,3,4-oxadiazol-2-yl}piperidin-3-yl]-2-[4-(trifluoromethyl)phenoxy]acetamide] | 1 to 500 nM | > 5000 nM | 97 µg/mL (≈ 195 µM) | 812 µg/mL (≈ 1630 µM) | 67 µg/mL (≈ 134 µM) | 
14 | O=C(COc1ccc(Cl)c(F)c1)N[C@H]1CC[C@H](c2nnc(OCCOC(F)(F)F)o2)NC1 [Example 77, 2-(4-chloro-3-fluorophenoxy)-N-[(3S,6R)-6-{5-[2-(trifluoromethoxy)ethoxy]-1,3,4-oxadiazol-2-yl}piperidin-3-yl]acetamide] | 1 to 500 nM | 1000 to 5000 nM | 98 µg/mL (≈ 203 µM) | 810 µg/mL (≈ 1680 µM) | 76 µg/mL (≈ 157 µM) | 
15 | CC(F)(F)CCCOc1nnc([C@H]2CC[C@H](NC(=O)COc3ccc(Cl)c(F)c3)CN2)o1 [Example 84, 2-(4-chloro-3-fluorophenoxy)-N-[(3S,6R)-6-{5-[(4,4-difluoropentyl)oxy]-1,3,4-oxadiazol-2-yl}piperidin-3-yl]acetamide] | 1 to 500 nM | 1000 to 5000 nM | 93 µg/mL (≈ 195 µM) | 717 µg/mL (≈ 1500 µM) | 62 µg/mL (≈ 130 µM) | 
16 | O=C(COc1ccc(Cl)c(F)c1)N[C@H]1CC[C@H](c2nnc(OC3CCC(F)(F)C3)o2)NC1 (stereo partly drawn) [Example 68, 2-(4-chloro-3-fluorophenoxy)-N-[(3S,6R)-6-{5-[(3,3-difluorocyclopentyl)oxy]-1,3,4-oxadiazol-2-yl}piperidin-3-yl]acetamide] | 2000 to 15000 nM | 1000 to 5000 nM | 168 µg/mL (≈ 354 µM) | 909 µg/mL (≈ 1910 µM) | 102 µg/mL (≈ 215 µM) | 
17 | O=C(COc1ccc(C(F)(F)F)nc1)N[C@H]1CC[C@H](c2nnc(OCCOC(F)(F)F)o2)NC1 [Example 14, N-[(3S,6R)-6-{5-[2-(trifluoromethoxy)ethoxy]-1,3,4-oxadiazol-2-yl}piperidin-3-yl]-2-{[6-(trifluoromethyl)pyridin-3-yl]oxy}acetamide] | 500 to 2000 nM | > 5000 nM | 814 µg/mL (≈ 1630 µM) | 616 µg/mL (≈ 1230 µM) | 606 µg/mL (≈ 1210 µM) | 
18 | CN(CCOC(F)(F)F)c1nnc([C@H]2CC[C@H](NC(=O)COc3ccc(Cl)c(F)c3)CN2)o1 [Example 94, 2-(4-chloro-3-fluorophenoxy)-N-[(3S,6R)-6-(5-{methyl[2-(trifluoromethoxy)ethyl]amino}-1,3,4-oxadiazol-2-yl)piperidin-3-yl]acetamide] | 2000 to 15000 nM | > 5000 nM |  |  |  | 
19 | O=C(COc1ccc(Cl)c(F)c1)N[C@@H]1CC[C@@H](c2nnc(-c3ccc(Cl)cc3)o2)NC1 [Example 35, 2-(4-chloro-3-fluorophenoxy)-N-[(3R,6S)-6-[5-(4-chlorophenyl)-1,3,4-oxadiazol-2-yl]piperidin-3-yl]acetamide] | 1 to 500 nM | 1 to 1000 nM |  |  |  | 
